27 compounds from patent publication US20110070190A1 (Roche Palo Alto LLC, priority 2009, published 2011) can be followed below.

Some results are limits rather than exact numbers.

The target in data set [1] is T1, HCV polymerase (NS5B570n-Con1) (Hepatitis C virus genotype 1b, UniProt Q9WMX2).
T1 construct: a 21 amino acid C-terminal deletion of full-length HCV polymerase; made in house; host or cells: E. coli BL21(DE3) pLysS, plasmid pET17b
As to the kind of experiment: HCV NS5B RNA polymerase activity (incorporation of radiolabeled nucleotide into acid insoluble RNA). Type of data set: biochemical, HCV Con1 strain. As to the method: The enzymatic activity of HCV polymerase (NS5B570n-Con1) was measured as the incorporation of radiolabeled nucleotide monophosphates into acid insoluble RNA products. Unincorporated radiolabeled substrate was removed by filtration and scintillant was added to the washed and dried filter plate containing radiolabeled RNA product. The amount of RNA product generated by NS5B570n-Con1 at the end of the reaction was directly proportional to the amount of light emitted by the scintillant.
The HCV polymerase used in the enzymatic activity assay is a 21 amino acid C-terminal deletion of full-length HCV polymerase derived from HCV Con1 strain, genotype 1b (GenBank accession number AJ242654) (NS5B570n-Con1). The NS5B570n-Con1 was sub-cloned downstream to the T7 promoter of the plasmid expression construct pET17b and transformed into E. coli strain BL21(DE3) pLysS for protein expression. A single colony was used to start an innoculum for a 10 L culture in LB media supplemented with 100 μg/mL ampicillin at 37° C. Protein expression was induced by the addition of 0.25 mM isopropyl-β-D-thiogalactopyranoside (IPTG) when the optical density of the culture at […] was 0.8. Induction of protein expression was carried out at 30° C. for 16 h after which the cells were harvested by centrifugation. NS5B570n-Con1 was purified to homogeneity using a three-column purification protocol including subsequent column chromatography on Ni-NTA, SP-Sepharose HP and Superdex 75 resins.
Enzymatic reactions in the presence of cIRES RNA template (see paragraph [00213]) contained 20 nM cIRES RNA, 20 nM NS5B570n-Con1 enzyme, 0.5 μCi of tritiated UTP (Perkin Elmer catalog no. TRK-412; specific activity: 30 to 60 Ci/mmol;), 1 μM each ATP, CTP, and GTP, 40 mM Tris-HCl pH 8.0, 40 mM NaCl, 4 mM DTT (dithiothreitol), 4 mM MgCl2, 5 μl of compound serial diluted in DMSO, and nuclease-free water to a final reaction volume of 50 μl. Enzymatic reactions in the presence of poly A RNA template (see paragraph [00213]) contained 20 nM Poly A:oligo(rU)16 premixed (see section 0004), 20 nM NS5B570n-Con1 enzyme, 1 μCi of tritiated UTP (Perkin Elmer catalog no. TRK-412; specific activity: 30 to 60 Ci/mmol), 40 mM Tris-HCl pH 8.0, 40 mM NaCl, 4 mM DTT (dithiothreitol), 4 mM MgCl2, 5 μl of compound serial diluted in DMSO, and nuclease-free water to a final reaction volume of 50 μl. Reaction mixtures were assembled in 96-well filter plates (cat #MADVN0B, Millipore Co.) and incubated for 2 h at 30° C. Reactions were stopped by addition of 10% final (v/v) trichloroacetic acid and incubated for 40 min at 4° C. Reactions were filtered, washed with 8 reaction volumes of 10% (v/v) trichloroacetic acetic acid, 4 reaction volumes of 70% (v/v) ethanol, air dried, and 25 μl of scintillant (Microscint 20, Perkin-Elmer) was added to each reaction well.
Two RNA templates were used to assay compounds described herein. The cIRES RNA template was 377 nucleotide long and consisted of a partial complementary sequence (36 nucleotides) of the core protein, followed by 341 nucleotide of the complementary sequence of the internal ribosome entry site. The poly A RNA template (GE Amersham catalog number 27-4110) was a homopolymeric RNA pre-annealed to a oligo(rU)16 primer at a molar ratio of 3-to-1 (primer-template).
The amount of light emitted from the scintillant was converted to counts per minute (CPM) on a Topcount® plate reader (Perkin-Elmer, Energy Range: Low, Efficiency Mode: Normal, Count Time: 1 min, Background Subtract: none, Cross talk reduction: Off).
Data was analyzed in Excel® (Microsoft®) and ActivityBase® (Idbs®). The reaction in the absence of enzyme was used to determine the background signal, which was subtracted from the enzymatic reactions. Positive control reactions were performed in the absence of compound, from which the background corrected activity was set as 100% polymerase activity. All data was expressed as a percentage of the positive control. […]

`O=c1ncn(Cc2ccc(Cl)cc2)c2cc(-c3ccc(OCc4cccnc4)cc3)sc12` [Compound I-50, 1-(4-Chloro-benzyl)-6-[4-(pyridin-3-ylmethoxy)-phenyl]-1H-thieno[3,2-d]pyrimidin-4-one] yielded a melting point of 255 to 257 °C. Moreover, the half-inhibitory concentration (IC50) in data set [1] was found to be 0.103 µM.

Consider `O=c1ncn(Cc2ccc(Cl)cc2)c2cc(-c3ccc(OCc4ccccn4)c(Cl)c3)sc12` [Compound I-6, 1-(4-chloro-benzyl)-6-[3-chloro-4-(pyridin-2-ylmethoxy)-phenyl]-1H-thieno[3,2-d]pyrimidin-4-one], for which the melting point was in the range of 272 to 274 °C. The compound further had an IC50 in data set [1] of 0.018 µM.

Compound `Cc1ccc(Cn2cnc(=O)c3sc(-c4ccc(C(C)(C)C)cc4)cc32)cc1` [Compound I-29] registered a melting point of 260.5 to 261.5 °C. Besides, it took 0.223 µM to reach half-maximal inhibition in data set [1] (IC50).

For `Cc1ccc(Cn2cnc(=O)c3sc(-c4ccc(Cl)cc4)cc32)cc1` [Compound I-22], the melting point fell in the range of 244.1 to 247.5 °C. The compound further returned an IC50 in data set [1] of 0.131 µM.

`N#Cc1ccc(-c2cc3c(s2)c(=O)ncn3Cc2ccc(Cl)cc2)cc1` [Compound I-52, 4-[1-(4-Chloro-benzyl)-4-oxo-1,4-dihydro-thieno[3,2-d]pyrimidin-6-yl]-benzonitrile] registered a melting point greater than 300 °C. This compound yielded a half-maximal inhibitory concentration (IC50) in data set [1] of 1.6 µM.

The compound `O=c1ncn(Cc2ccc(Cl)cc2)c2cc(-c3ccc(OCc4ccncc4)cc3)sc12` [Compound I-58] showed a melting point of 257 to 259 °C. Also, in data set [1], the midpoint of inhibition, the IC50, lay at 0.049 µM.

`Cc1cc(N)nc(COc2ccc(-c3cc4c(s3)c(=O)ncn4Cc3ccc(Cl)cc3)cc2)n1` [Compound I-45, 6-[4-(4-Amino-6-methyl-pyrimidin-2-ylmethoxy)-phenyl]-1-(4-chloro-benzyl)-1H-thieno[3,2-d]pyrimidin-4-one] showed a melting point of 272 to 274 °C. In data set [1], half-maximal inhibition (IC50) was put at 0.372 µM.

The compound `Cc1ccc(Cn2cnc(=O)c3sc(-c4ccccc4)cc32)c(F)c1` [Compound I-21] came in with a melting point of 225.1 to 225.8 °C. In data set [1], this compound returned an IC50 of 0.126 µM.

The compound `CC(C)C(=O)Nc1ccc(-c2cc3c(s2)c(=O)ncn3Cc2ccc(Cl)cc2)cc1F` [Compound I-55] yielded an IC50 in data set [1] of 1.79 µM.

Compound `CC(CCO)C(=O)Nc1ccc(-c2cc3c(s2)c(=O)ncn3Cc2ccc(Cl)cc2)cc1Cl` (stereo not shown) [Compound I-35] had a half-inhibitory concentration (IC50) in data set [1] of 0.517 µM.

`Nc1cc(C(=O)Nc2ccc(-c3cc4c(s3)c(=O)ncn4Cc3ccc(Cl)cc3)cc2)ccn1` [Compound I-9, 2-Amino-N-{4-[1-(4-chloro-benzyl)-4-oxo-1,4-dihydro-thieno[3,2-d]pyrimidin-6-yl]-phenyl}-isonicotinamide] registered an IC50 in data set [1] of 0.029 µM. This IC50 is about 18-fold lower than that of the compound before.

In data set [1], `O=c1ncn(Cc2ccc(Cl)cc2)c2cc(-c3ccc(NCc4ccccn4)cc3)sc12` [Compound I-23] registered an IC50 of 0.139 µM. Compared with the last compound, the IC50 is about 4.8-fold higher.

Compound `O=c1ncn(Cc2ccc(Cl)cc2)c2cc(-c3ccc(SCc4cccnc4)cc3)sc12` [Compound I-51, 1-(4-Chloro-benzyl)-6-[4-(pyridin-3-ylmethylsulfanyl)-phenyl]-1H-thieno[3,2-d]pyrimidin-4-one] displayed an IC50 in data set [1] of 0.313 µM.

In data set [1], `Cc1cc(C(=O)Nc2ccc(-c3cc4c(s3)c(=O)ncn4Cc3ccc(Cl)cc3)cc2)n[nH]1` [Compound I-15, 5-Methyl-1H-pyrazole-3-carboxylic acid {4-[1-(4-chloro-benzyl)-4-oxo-1,4-dihydro-thieno[3,2-d]pyrimidin-6-yl]-phenyl}-amide] showed a half-maximal inhibitory concentration (IC50) of 0.07 µM. This IC50 is about 4.5-fold lower than that of the compound before.

With `Cc1ccc(Cn2cnc(=O)c3sc(-c4ccc(-c5cc6ncccn6n5)cc4)cc32)cc1` [Compound I-57, 1-(4-Methyl-benzyl)-6-(4-pyrazolo[1,5-a]pyrimidin-2-yl-phenyl)-1H-thieno[3,2-d]pyrimidin-4-one], the half-inhibitory concentration (IC50) in data set [1] was found to be 0.108 µM.

In turn, `O=c1ncn(Cc2ccc(Cl)cc2)c2cc(-c3ccc(Oc4ccccc4)cc3)sc12` [Compound I-24, 1-(4-Chloro-benzyl)-6-(4-phenoxy-phenyl)-1H-thieno[3,2-d]pyrimidin-4-one] gave an IC50 in data set [1] of 0.15 µM.

`O=c1ncn(Cc2ccc(Cl)cc2)c2cc(-c3ccc(N4CCCC4)cc3)sc12` [Compound I-56, 1-(4-Chloro-benzyl)-6-(4-pyrrolidin-1-yl-phenyl)-1H-thieno[3,2-d]pyrimidin-4-one] displayed an IC50 in data set [1] of 1.61 µM.

`O=c1ncn(Cc2ccc(Cl)cc2)c2cc(-c3ccc(OCc4cnccn4)cc3)sc12` [Compound I-16, 1-(4-chloro-benzyl)-6-[4-(pyrazin-2-ylmethoxy)-phenyl]-1H-thieno[3,2-d]pyrimidin-4-one] gave a melting point of 236.9 to 239.6 °C. The IC50 in data set [1] was found to be 0.071 µM.

The compound `O=C(Nc1ccc(-c2cc3c(s2)c(=O)ncn3Cc2ccc(Cl)cc2)cc1)c1cc(F)ccc1F` [Compound I-7, N-{4-[1-(4-Chloro-benzyl)-4-oxo-1,4-dihydro-thieno[3,2-d]pyrimidin-6-yl]-phenyl}-2,5-difluoro-benzamide] showed a half-maximal inhibitory concentration (IC50) in data set [1] of 0.021 µM.

Consider `Cc1nnc(-c2ccc(-c3cc4c(s3)c(=O)ncn4Cc3ccc(Cl)cc3)cc2)o1` [Compound I-33, 1-(4-Chloro-benzyl)-6-[4-(5-methyl-[1,3,4]oxadiazol-2-yl)-phenyl]-1H-thieno[3,2d]pyrimidin-4-one], for which the half-inhibitory concentration (IC50) in data set [1] amounted to 0.39 µM.

In data set [1], `Cc1ccc(C(=O)Nc2ccc(-c3cc4c(s3)c(=O)ncn4Cc3ccc(Cl)cc3)cc2)o1` [Compound I-3, 5-Methyl-furan-2-carboxylic acid {4-[1-(4-chloro-benzyl)-4-oxo-1,4-dihydro-thieno[3,2-d]pyrimidin-6-yl]-phenyl}-amide] yielded an IC50 of 0.009 µM.

`O=c1ncn(Cc2ccc(Cl)cc2)c2cc(-c3ccc(OCc4ccccc4)c(Cl)c3)sc12` [Compound I-44, 6-(4-Benzyloxy-3-chloro-phenyl)-1-(4-chloro-benzyl)-1H-thieno[3,2-d]pyrimidin-4-one] showed a melting point of 222 to 224 °C. The compound further came in with an IC50 in data set [1] of 0.03 µM.

Consider `O=c1ncn(Cc2ccc(Cl)cc2)c2cc(-c3ccc(SCc4ccncc4)cc3)sc12` [Compound I-59], for which the IC50 in data set [1] was found to be 0.167 µM.

As for `CCCCOc1ccc(-c2cc3c(s2)c(=O)ncn3Cc2ccc(Cl)cc2)cc1Cl` [Compound I-25, 6-(4-Butoxy-3-chloro-phenyl)-1-(4-chloro-benzyl)-1H-thieno[3,2-d]pyrimidin-4-one], the IC50 in data set [1] worked out at 0.155 µM. The IC50 values of the last two compounds are within 1.5-fold of each other.

`O=C(Nc1ccc(-c2cc3c(s2)c(=O)ncn3Cc2ccc(Cl)cc2)cc1)c1ccc(O)cn1` [Compound I-46, 5-Hydroxy-pyridine-2-carboxylic acid, {4-[1-(4-chloro-benzyl)-4-oxo-1,4-dihydro-thieno[3,2-d]pyrimidin-6-yl]-phenyl}-amide] came in with an IC50 in data set [1] of 0.017 µM.

Consider `O=c1ncn(Cc2ccc(Cl)cc2)c2cc(-c3ccc(NCc4ccccc4)cc3)sc12` [Compound I-49, 6-(4-Benzylamino-phenyl)-1-(4-chloro-benzyl)-1H-thieno[3,2-d]pyrimidin-4-one], for which half-maximal inhibition in data set [1] (IC50) required 0.377 µM.

For the compound `CC(=O)Nc1ccc(-c2cc3c(s2)c(=O)ncn3Cc2ccc(Cl)cc2)cc1` [Compound I-37, N-{4-[1-(4-Chloro-benzyl)-4-oxo-1,4-dihydro-thieno[3,2-d]pyrimidin-6-yl]-phenyl}-acetamide], the half-maximal inhibitory concentration (IC50) in data set [1] amounted to 0.586 µM.
